Data: patent publication US10633399B2, “Functionalized aminobenzoboroxoles” (Channel Therapeutics, Inc., priority 2015, dated 2020)
Blank lines part the entries; values can stand above or below the compound they belong to.

Columns and labels:
[1] = Cell viability assay (MTT), MIAPaCa-2; conditions: human, MIAPaCa-2 pancreatic cancer cells
Method: (§1) After synthesizing the functionalized aminobenzoboroxoles, these molecules were evaluated for their general cytotoxicity against breast cancer cell lines (MDA-MB-231) and pancreatic cancer cell lines (MIAPaCa-2).
(§2) Human pancreatic cancer MIAPaCa-2 cells were purchased from ATCC and were maintained in D-MEM supplemented with 10% FBS, 2.5% horse serum, and 1% Penicillin Streptomycin in a humidified atmosphere of 5% CO2 at 37° C. Human breast cancer MDA-MB-231 cells were purchased from ATCC and were maintained in D-MEM supplemented with 10% FBS and 1% Penicillin Streptomycin in a humidified atmosphere of 5% CO2 at 37° C. […] DMSO was added as a negative control. To determine the cell viability, MTT (3-(4,5-dimethylthiazolyl-2)-2,5-diphenyltetrazolium bromide) was dissolved in PBS solution (5 mg/mL) and 10 μL was added to each well and incubated. After 4 hours, 100 μL of SDS (sodium dodecyl sulfate) solution (1 g in 10 mL of 0.01 N HCl) was added to solubilize formazan precipitate and incubated for an additional 4 hours. The absorbance of each well was then measured using a microplate reader at 570 nm. The absorbance of control wells was defined as 100% viability and all of the tested compounds were expressed as percentage relative to the control.

[2] = Cell viability assay (MTT), MDA-MB-231; conditions: human, MDA-MB-231 breast cancer cells
Method: as §1, §2

[3] = tested on: Human pancreatic cancer MIAPaCa-2 cells; test: Cell viability assay (MTT), MIAPaCa-2; conditions: for activity against MIAPaCa-2 cell lines: 12.5 μM concentration; for IC50: Homo sapiens, MIA PaCa-2
Method: as §1, §2

[4] = tested on: Human breast cancer MDA-MB-231 cells; test: Cell viability assay (MTT), MDA-MB-231; conditions: Homo sapiens, MDA-MB-231
Method: as §1, §2

Structure (SMILES): O=C(NCCCl)N(Cc1ccccc1)c1ccc2c(c1)B(O)OC2 [Compound 27]
viability at 72 h, 12.5 µM [1]: 104%
viability at 72 h, 50 µM [1]: 61.8%
viability at 72 h, 12.5 µM [2]: 135%
viability at 72 h, 50 µM [2]: 101%
melting point: 138 to 140 °C

Structure (SMILES): OB1OCc2ccc(NCc3ccc(Cl)cc3Cl)cc21 [Compound 5]
viability at 72 h, 12.5 µM [1]: 86.4%
viability at 72 h, 50 µM [1]: 65.8%
viability at 72 h, 12.5 µM [2]: 75.2%
viability at 72 h, 50 µM [2]: 75.7%
melting point: 106 to 108 °C

Structure (SMILES): OB1OCc2ccc(NCc3ccc(F)cc3F)cc21 [Compound 4]
viability at 72 h, 12.5 µM [1]: 90.9%
viability at 72 h, 50 µM [1]: 63.9%
viability at 72 h, 12.5 µM [2]: 80.2%
viability at 72 h, 50 µM [2]: 90%
melting point: 136 to 138 °C

Structure (SMILES): COc1ccc(CN(C(=O)Nc2ccccc2)c2ccc3c(c2)B(O)OC3)cc1 [Compound 24]
viability at 72 h, 12.5 µM [1]: 22.4%
viability at 72 h, 50 µM [1]: 17.5%
activity against MIAPaCa-2 cell lines [3]: showed activity
IC50 [3]: 2.7 µM
viability at 72 h, 12.5 µM [2]: 63%
viability at 72 h, 50 µM [2]: 53.9%
IC50 [4]: 11.9 µM
melting point: 104 to 106 °C

Structure (SMILES): O=NN(Cc1ccccc1)c1ccc2c(c1)B(O)OC2 [Compound 17]
viability at 72 h, 12.5 µM [1]: 83.5%
viability at 72 h, 50 µM [1]: 51.5%
viability at 72 h, 12.5 µM [2]: 121%
viability at 72 h, 50 µM [2]: 115%
melting point: 108 to 110 °C

Structure (SMILES): COc1ccc(CN(C(=O)NCCCl)c2ccc3c(c2)B(O)OC3)cc1 [Compound 28]
viability at 72 h, 12.5 µM [1]: 74.9%
viability at 72 h, 50 µM [1]: 60.4%
viability at 72 h, 12.5 µM [2]: 95.8%
viability at 72 h, 50 µM [2]: 63.2%
melting point: 134 to 136 °C

Structure (SMILES): O=C(NC1CCCCC1)N(Cc1ccccc1)c1ccc2c(c1)B(O)OC2 [Compound 25]
viability at 72 h, 12.5 µM [1]: 64.8%
viability at 72 h, 50 µM [1]: 39.4%
viability at 72 h, 12.5 µM [2]: 80.9%
viability at 72 h, 50 µM [2]: 128%
melting point: 125 to 127 °C

Structure (SMILES): O=C(Nc1ccc([N+](=O)[O-])c(C(F)(F)F)c1)c1ccc(CNc2ccc3c(c2)B(O)OC3)cc1 [Compound 15]
melting point: 117 to 119 °C

Structure (SMILES): OB1OCc2ccc(NCc3ccc4c(c3)OCO4)cc21 [Compound 14]
viability at 72 h, 12.5 µM [1]: 88.9%
viability at 72 h, 50 µM [1]: 69%
viability at 72 h, 12.5 µM [2]: 88.5%
viability at 72 h, 50 µM [2]: 102%
melting point: 136 to 138 °C

Structure (SMILES): O=NN(Cc1ccc(F)cc1)c1ccc2c(c1)B(O)OC2 [Compound 19]
viability at 72 h, 12.5 µM [1]: 77.7%
viability at 72 h, 50 µM [1]: 62.8%
viability at 72 h, 12.5 µM [2]: 128%
viability at 72 h, 50 µM [2]: 108%
melting point: 121 to 123 °C

Structure (SMILES): CCCCN(CCCC)c1ccc(CNc2ccc3c(c2)B(O)OC3)cc1 [Compound 12]
viability at 72 h, 12.5 µM [1]: 89.1%
viability at 72 h, 50 µM [1]: 58.2%
viability at 72 h, 12.5 µM [2]: 106%
viability at 72 h, 50 µM [2]: 103%
melting point: 94 to 96 °C

The next lines start with results.

melting point: 141 to 143 °C
Structure (SMILES): N#Cc1ccc(CNc2ccc3c(c2)B(O)OC3)cc1 [Compound 8]
viability at 72 h, 12.5 µM [1]: 80.8%
viability at 72 h, 50 µM [1]: 47%
viability at 72 h, 12.5 µM [2]: 77.7%
viability at 72 h, 50 µM [2]: 109%

melting point: 123 to 125 °C
Structure (SMILES): OB1OCc2ccc(NCc3ccccc3)cc21 [Compound 2]
viability at 72 h, 12.5 µM [1]: 76.6%
viability at 72 h, 50 µM [1]: 34.5%
viability at 72 h, 12.5 µM [2]: 73.7%
viability at 72 h, 50 µM [2]: 80.2%

melting point: 122 to 124 °C
Structure (SMILES): COc1ccc(CNc2ccc3c(c2)B(O)OC3)cc1 [Compound 10, 6-N-(p-methoxybenzyl)aminobenzoboroxole]
viability at 72 h, 12.5 µM [1]: 51.8%
viability at 72 h, 50 µM [1]: 37.9%
viability at 72 h, 12.5 µM [2]: 90.2%
viability at 72 h, 50 µM [2]: 90%

melting point: 148 to 150 °C
Structure (SMILES): Cc1ccc(CNc2ccc3c(c2)B(O)OC3)cc1 [Compound 9]
viability at 72 h, 12.5 µM [1]: 57.2%
viability at 72 h, 50 µM [1]: 45.9%
viability at 72 h, 12.5 µM [2]: 84.1%
viability at 72 h, 50 µM [2]: 82.8%

melting point: 65 to 67 °C
Structure (SMILES): OB1OCc2ccc(NCc3ccc(N4CCCCC4)cc3)cc21 [Compound 13]
viability at 72 h, 12.5 µM [1]: 92%
viability at 72 h, 50 µM [1]: 49.5%
viability at 72 h, 12.5 µM [2]: 93.9%
viability at 72 h, 50 µM [2]: 90.7%

melting point: 125 to 127 °C
Structure (SMILES): O=NN(Cc1ccc(F)cc1F)c1ccc2c(c1)B(O)OC2 [Compound 20]
viability at 72 h, 12.5 µM [1]: 70.3%
viability at 72 h, 50 µM [1]: 70.5%
viability at 72 h, 12.5 µM [2]: 122%
viability at 72 h, 50 µM [2]: 126%

melting point: 121 to 123 °C
Structure (SMILES): O=NN(Cc1ccc(Cl)cc1Cl)c1ccc2c(c1)B(O)OC2 [Compound 21]
viability at 72 h, 12.5 µM [1]: 95.7%
viability at 72 h, 50 µM [1]: 69.5%
viability at 72 h, 12.5 µM [2]: 134%
viability at 72 h, 50 µM [2]: 106%

melting point: 116 to 118 °C
Structure (SMILES): O=C(Nc1ccccc1)N(Cc1ccccc1)c1ccc2c(c1)B(O)OC2 [Compound 23]
viability at 72 h, 12.5 µM [1]: 49.6%
viability at 72 h, 50 µM [1]: 30%
viability at 72 h, 12.5 µM [2]: 116%
viability at 72 h, 50 µM [2]: 47%

melting point: 156 to 158 °C
Structure (SMILES): COc1ccc(CN(C(=O)NC2CCCCC2)c2ccc3c(c2)B(O)OC3)cc1 [Compound 26]
viability at 72 h, 12.5 µM [1]: 45.5%
viability at 72 h, 50 µM [1]: 25.1%
viability at 72 h, 12.5 µM [2]: 96.3%
viability at 72 h, 50 µM [2]: 60.8%

melting point: 128 to 130 °C
Structure (SMILES): OB1OCc2ccc(NCc3ccc(Cl)c(Cl)c3)cc21 [Compound 6]
viability at 72 h, 12.5 µM [1]: 95.3%
viability at 72 h, 50 µM [1]: 62.6%
viability at 72 h, 12.5 µM [2]: 69.2%
viability at 72 h, 50 µM [2]: 68.7%

melting point: 144 to 147 °C
Structure (SMILES): O=NN(Cc1ccc(Cl)c(Cl)c1)c1ccc2c(c1)B(O)OC2 [Compound 22]
viability at 72 h, 12.5 µM [1]: 84.8%
viability at 72 h, 50 µM [1]: 59.9%
viability at 72 h, 12.5 µM [2]: 122%
viability at 72 h, 50 µM [2]: 146%

melting point: 221 to 223 °C
Structure (SMILES): O=C(O)c1ccc(CNc2ccc3c(c2)B(O)OC3)cc1 [Compound 7]
viability at 72 h, 12.5 µM [1]: 71.3%
viability at 72 h, 50 µM [1]: 80.6%
viability at 72 h, 12.5 µM [2]: 100%
viability at 72 h, 50 µM [2]: 124%

melting point: 122 to 124 °C
Structure (SMILES): CN(C)c1ccc(CNc2ccc3c(c2)B(O)OC3)cc1 [Compound 11]
viability at 72 h, 12.5 µM [1]: 72.1%
viability at 72 h, 50 µM [1]: 78.4%
viability at 72 h, 12.5 µM [2]: 97.6%
viability at 72 h, 50 µM [2]: 71.1%

IC50 [3]: 8.3 µM
IC50 [4]: 11.5 µM
melting point: 209 to 211 °C
Structure (SMILES): OB1OCc2ccc(NCc3cc4ccccc4nc3Cl)cc21 [Compound 16]
viability at 72 h, 12.5 µM [1]: 28.2%
viability at 72 h, 50 µM [1]: 28.6%
activity against MIAPaCa-2 cell lines [3]: showed activity
viability at 72 h, 12.5 µM [2]: 44.3%
viability at 72 h, 50 µM [2]: 44.8%

melting point: 109 to 111 °C
Structure (SMILES): COc1ccc(CN(N=O)c2ccc3c(c2)B(O)OC3)cc1 [Compound 18, 6-N-nitroso-N-(p-methoxybenzyl)amino-benzoboroxole]
viability at 72 h, 12.5 µM [1]: 83%
viability at 72 h, 50 µM [1]: 61%
viability at 72 h, 12.5 µM [2]: 119%
viability at 72 h, 50 µM [2]: 123%

melting point: 135 to 137 °C
Structure (SMILES): OB1OCc2ccc(NCc3ccc(F)cc3)cc21 [Compound 3]
viability at 72 h, 12.5 µM [1]: 87.2%
viability at 72 h, 50 µM [1]: 73.6%
viability at 72 h, 12.5 µM [2]: 84%
viability at 72 h, 50 µM [2]: 91.7%
